Source: patent publication US7014863B2, “Additive for an animal feed” (priority 1999, dated 2006)

Tests used:
Clostridium perfringens [1] = assay type: in vivo, chickens; settings: inferred from FIG. 3 and common knowledge
Clostridium perfringens [2] = settings: general common knowledge in the art; cited from earlier work

For `C[N+](C)(C)CC(=O)O` [betaine], the “effectiveness against an infection of C. perfringens” value (Clostridium perfringens [1]) is given as “does not result in the Clostridium infection being effectively treated” and the “effectiveness against a C. perfringens challenge” value (Clostridium perfringens [2]) is given as “not effective”.
